Measured values taken from BigSolDB 2.1.

CCC(C)n1ncn(-c2ccc(N3CCN(c4ccc(OC[C@H]5CO[C@](Cn6cncn6)(c6ccc(Cl)cc6Cl)O5)cc4)CC3)cc2)c1=O (mixture of isomers)
solubility (mole fraction)
Details	in chloroform	in dichloromethane	in ethanol	in methanol	in n-butanol	in n-propanol
288.15 K	0.0459	0.0287	1.07e-05	2.35e-05	1.43e-05	1.24e-05
293.15 K	0.048	0.0306	1.43e-05	2.97e-05	1.82e-05	1.61e-05
298.15 K	0.0503	0.0326	1.89e-05	3.78e-05	2.28e-05	2.09e-05
303.15 K	0.0525	0.0347	2.44e-05	4.71e-05	2.87e-05	2.68e-05
308.15 K	0.0548	0.0369	3.18e-05	5.88e-05	3.52e-05	3.36e-05
